Assay results: patent US20110237549A1, “MODULATORS OF RNA RIBOSWITCHES” (MEMORIAL SLOAN KETTERING CANCER CENTER, priority 2008, published 2011)

Assays:
[1] = tested on: 265-nucleotide full-length T. maritima lysine riboswitch; assay: primer extension assay (reverse transcriptase pausing at A169); format: biochemical, Thermotoga maritima
Source text: FIG. 39. Interactions of lysine and its analogs with the T. maritima lysine riboswitch studied by primer extension. a and b, Representative gels of riboswitch titration by lysine (a) and AEC (b). Reverse transcriptase (RT) pauses three nucleotides prior to the j unction at A169 in the context of the full-length riboswitch if the riboswitch-binding ligand is present in the reaction mixture. c, Representative titration experiments used for calculations of the ligand concentration (FIG. 4c) at which RT pausing is half-maximally attained. The experimental data points for lysine and AEC are from panels (a) and (b). The data were fitted to equation (1), which is based on the equation describing a bimolecular equilibrium, by the nonlinear least squares analysis. In the equation
θ is the fraction of RT pausing, No and Lo are RNA and ligand concentrations, respectively, and P50 is the apparent ligand concentration at which RT pausing is half-maximally attained. The P50 value for the lysine-induced RT pausing 5.50±0.53/−1M (mean±s.d.) (n=2) is similar to the Kd value 4.03±0.34/−1M (mean±s.d.) (n=2) determined by the equilibrium dialysis assay. The relative differences between the P50 values for lysine and its analogs are in overall agreement with the relative differences obtained from the Kd values for lysine and its analogs determined for the B. subtilis lysine riboswitch in ref. 5.
Primer extension experiments were performed using 265-nucleotide full-length riboswitch. The 32P-labelled 13-mer DNA oligonucleotide (100,000 c.p.m.), complementary to nucleotides 253-265 of RNA, was annealed to the 39 end of RNA (final RNA concentration […] in the assay). Primer extension was conducted in […] volume with 40 U of moloney murine leukaemia virus reverse transcriptase in 50 mM Na-HEPES, pH 7.9, 2 mM MgCl2, and variable concentrations of NaCl and KCl (FIG. 4), with or without a tenfold excess of lysine over RNA. After 30 min incubation at 37° C., the reactions were precipitated with ethanol, dissolved in loading buffer and analysed by 10% PAGE. Efficiency of lysine-induced pausing of reverse transcriptase at nucleotide A169 was quantified using FLA-7000 PhosphorImager and Image Gauge software (Fujifilm). Band intensities from independent experiments were averaged after gel-loading correction, background subtraction and normalization. The primer extension assay in the presence of lysine analogues was performed in 50 mM Na-HEPES, pH 7.9, 2 mM MgCl2, 50 mM KCl, and lysine analogues in the range 1028-1022 M. The data were fitted using a bimolecular equilibrium equation (Supplementary FIG. 12) and the resulting P50 values are reported in FIG. 4c. Reverse transcriptase sequencing reactions were run in parallel.

[2] = tested on: mRNA that contains the FMN riboswitch; details: used at a 17-fold higher concentration than FMN; cited from earlier work
[3] = tested on: 112-nucleotide F. nucleatum FMN riboswitch; assay: fluorescent binding assay with the 112-nucleotide F. nucleatum FMN riboswitch; details: for Kd: read-out: dissociation constants (mean s.d.), 112-nucleotide riboswitch, 2 mM MgCl2 and 100 mM KCl
[4] = target: 220-nucleotide full-length F. nucleatum FMN riboswitch; assay: fluorescent binding assay with the 220-nucleotide full-length F. nucleatum impX FMN riboswitch; set-up: species or system Fusobacterium nucleatum; details: 220-nucleotide RNA; read-out: Kd (mean±s.d.)
[5] = tested on: T. maritima lysine riboswitch; assay: equilibrium dialysis, T. maritima lysine riboswitch; format: binding, Thermotoga maritima
Description: (§1) The assay was performed as described in Sudarsan, et al., An mRNA structure in bacteria that controls gene expression by binding lysine, Genes Dev. 17:2688-2697 (2003) using 5 kDa DispoEquilibrium DIALYZERS (Harvard Apparatus). In brief, […] RNA (from 0.001 to 20 mM) in the in-line probing buffer was placed in chamber A of the dialyser and equilibrated for 16 h at room temperature against chamber B containing […] 3H-labelled lysine (1 nM; 6,000 c.p.m.) in the same buffer. The amount of bound lysine was calculated by subtracting the radioactivity counts of chamber B from chamber A. The data were fitted using a bimolecular equilibrium equation, assuming that the free lysine concentration is negligible.

[6] = tested on: B. subtilis lysine riboswitch; assay: equilibrium dialysis, B. subtilis lysine riboswitch; format: binding; details: Bacillus subtilis riboswitch
Description: as §1

[7] = tested on: 143-nucleotide B. subtilis FMN riboswitch; assay: fluorescent binding assay with the 143-nucleotide B. subtilis FMN riboswitch; details: Bacillus subtilis riboswitch
Description: FIG. 9. The metabolite-sensing domain of the B. subtilis FMN riboswitch. a, The sequence of the 143-nucleotide fragment of B. subtilis riboswitch 5 is presented as a secondary structure schematic, which is based on the consensus secondary structure of the FMN riboswitches with small corrections from the three-dimensional structure of the F nucleatum riboswitch. b, Binding of FMN and its analogs to the 143-nucleotide B. subtilis FMN riboswitch. All measurements were performed using fluorescent assay.

SMILES: NCCSC[C@H](N)C(=O)O [AEC, S-(2-aminoethyl)-L-cysteine]
- binding to the riboswitch relative to lysine in primer extension [1]: weaker binding

SMILES: Cc1cc2nc3c(=O)[nH]c(=O)nc-3n(C[C@H](O)[C@H](O)[C@H](O)COP(=O)(O)OP(=O)(O)OC[C@H]3O[C@@H](n4cnc5c(N)ncnc54)[C@H](O)[C@@H]3O)c2cc1C [FAD, flavin adenine dinucleotide]
- inhibition of transcription in vitro [2]: inhibited

SMILES: Cc1cc2nc3c(=O)[nH]c(=O)nc-3n(C[C@H](O)[C@H](O)[C@H](O)COP(=O)(O)O)c2cc1C [FMN, flavin mononucleotide]
- binding to the riboswitch in the presence of cobalt hexamine ([3]; cobalt hexamine in place of Mg2+): equally well
- reduction of binding affinity in the presence of iridium hexamine ([3]; iridium hexamine in place of Mg2+): about 15 fold
- Kd [4]: 0.134 ± 0.0139 µM

SMILES: NCCOC[C@H](N)C(=O)O [L-4-oxalysine]
- binding to the riboswitch relative to lysine in primer extension [1]: weaker binding

SMILES: N=C(N)NCCCC[C@H](N)C(=O)O [L-homoarginine]
- binding to the riboswitch relative to lysine in primer extension [1]: weaker interactions than lysine

SMILES: CC(=N)NCCCC[C@H](N)C(=O)O [N6-1-iminoethyl-L-lysine]
- binding to the riboswitch relative to lysine in primer extension [1]: weaker interactions than lysine

SMILES: Cc1cc2nc3c(=O)[nH]c(=O)nc-3n(C)c2cc1C [lumiflavin]
- effect of additional removal of the ribityl moiety on binding affinity ([3]; compared with riboflavin): reduces binding affinity to only a very small extent
- Kd [3]: 59 µM

SMILES: NCCCC[C@H](N)C(=O)O [lysine, L-lysine]
- lysine binding affinity when K+ was omitted or replaced by Na+ [5]: significantly decreased
- lysine binding affinity when K+ was omitted or replaced by Na+ [6]: significantly decreased
- decrease of reverse transcriptase pause after replacement of K+ by Na+ ([1]; in the presence of lysine): 33 fold

SMILES: Cc1cc2nc3c(=O)[nH]c(=O)nc-3n(C[C@H](O)[C@H](O)[C@H](O)CO)c2cc1C [riboflavin]
- decrease of binding affinity compared with binding of FMN ([3]; F. nucleatum riboswitch): about 1,000 fold
- Kd [3]: 39.8 µM
- decrease of binding affinity compared with binding of FMN [7]: about 1,000 fold
